Active and inactive are the calls of the source.
Assays:
[1] = tested on: C2C12; experiment: Induction of alkaline phosphatase activity in mouse C2C12 cells; format: cell-based
[2] = target: T1, Bone morphogenetic protein 2 (Homo sapiens) (UniProt P12643); experiment: Increase in BMP2-mediated osteoblastogenesis in mouse C2C12 cells assessed as increase in BMP7 mRNA level at 10 uM by SYBR-based RT-PCR; format: cell-based
T1 sequence (whole entry): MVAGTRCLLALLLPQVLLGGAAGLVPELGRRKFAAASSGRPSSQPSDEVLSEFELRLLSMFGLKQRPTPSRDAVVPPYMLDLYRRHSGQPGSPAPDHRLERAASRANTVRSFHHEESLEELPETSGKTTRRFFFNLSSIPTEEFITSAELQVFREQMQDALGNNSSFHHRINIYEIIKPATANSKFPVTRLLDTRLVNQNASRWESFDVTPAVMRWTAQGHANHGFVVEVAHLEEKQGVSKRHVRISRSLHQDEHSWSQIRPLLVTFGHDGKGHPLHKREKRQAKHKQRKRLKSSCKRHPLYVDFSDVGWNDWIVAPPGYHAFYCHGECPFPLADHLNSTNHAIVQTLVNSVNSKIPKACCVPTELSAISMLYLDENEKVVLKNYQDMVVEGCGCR

[3] = target: T1, Bone morphogenetic protein 2 (Homo sapiens); experiment: Increase in human recombinant BMP2-mediated osteoblastogenesis in mouse C2C12 cells assessed as induction of alkaline phosphatase activity after 6 days; format: cell-based
[4] = target: T1, Bone morphogenetic protein 2 (Homo sapiens); experiment: Increase in BMP2-mediated osteoblastogenesis in mouse C2C12 cells assessed as increase in OCN mRNA level at 10 uM by SYBR-based RT-PCR; format: cell-based
[5] = target: T1, Bone morphogenetic protein 2 (Homo sapiens); experiment: Increase in BMP2-mediated osteoblastogenesis in mouse C2C12 cells assessed as increase in BMP9 mRNA level at 10 uM by SYBR-based RT-PCR; format: cell-based
[6] = target: T1, Bone morphogenetic protein 2 (Homo sapiens); experiment: Increase in BMP2-mediated osteoblastogenesis in mouse C2C12 cells assessed as increase in BMP6 mRNA level at 10 uM by SYBR-based RT-PCR; format: cell-based
[7] = target: T1, Bone morphogenetic protein 2 (Homo sapiens); experiment: Increase in BMP2-mediated osteoblastogenesis in mouse C2C12 cells assessed as increase in BMP4 mRNA level at 10 uM by SYBR-based RT-PCR; format: cell-based
[8] = target: T1, Bone morphogenetic protein 2 (Homo sapiens); experiment: Increase in human recombinant BMP2-mediated osteoblastogenesis assessed as increase in alkaline phosphatase activity in mouse C2C12 at 10 uM co-treated with BMP2 antagonist noggin on day 3 measured after 6 days; format: functional
[9] = target: T1, Bone morphogenetic protein 2 (Homo sapiens); experiment: Increase in BMP2-mediated osteoblastogenesis assessed as increase in Kv4.3 mRNA expression at 10 uM after 6 hrs after 3 days by RT-PCR analysis
[10] = target: T1, Bone morphogenetic protein 2 (Homo sapiens); experiment: Increase in BMP2-mediated osteoblastogenesis assessed as increase in BMP2 protein level in mouse C2C12 cells at 10 uM by Western blot analysis; format: cell-based
[11] = target: T1, Bone morphogenetic protein 2 (Homo sapiens); experiment: Increase in BMP2-mediated osteoblastogenesis assessed as increase in phosphorylated of Smad level in nucleus at 10 uM after 6 hrs by Western blot analysis
[12] = target: T1, Bone morphogenetic protein 2 (Homo sapiens); experiment: Increase in BMP2-mediated osteoblastogenesis assessed as increase in phosphorylation of Smad at 10 uM by Western blot analysis
[13] = target: T1, Bone morphogenetic protein 2 (Homo sapiens); experiment: Increase in BMP2-mediated osteoblastogenesis assessed as increase in Kv1.5 mRNA expression at 10 uM after 3 days by RT-PCR analysis
[14] = target: T1, Bone morphogenetic protein 2 (Homo sapiens); experiment: Increase in human recombinant BMP2-mediated osteoblastogenesis assessed as increase in alkaline phosphatase activity in mouse C2C12 cells at 10 uM treated with BMP2 antagonist on day 4 post compound challenge measured after 6 days; format: functional, cell-based
[15] = target: T1, Bone morphogenetic protein 2 (Homo sapiens); experiment: Increase in BMP2-mediated osteoblastogenesis assessed as increase in BMP7 protein level in mouse C2C12 cells at 10 uM by Western blot analysis; format: cell-based
[16] = target: T1, Bone morphogenetic protein 2 (Homo sapiens); experiment: Increase in BMP2-mediated osteoblastogenesis assessed as increase in Kv4.2 mRNA expression at 10 uM after 6 hrs after 3 days by RT-PCR analysis
[17] = target: T1, Bone morphogenetic protein 2 (Homo sapiens); experiment: Increase in BMP2-mediated osteoblastogenesis assessed as increase in nuclear translocation of Smad at 10 uM by Western blot analysis
[18] = target: T1, Bone morphogenetic protein 2 (Homo sapiens); experiment: Increase in human recombinant BMP2-mediated osteoblastogenesis assessed as increase in alkaline phosphatase mRNA expression in mouse C2C12 cells at 10 uM treated with BMP2 antagonist noggin on day 4 post compound challenge measured after 6 days by SYBR-based RT-PCR; format: functional, cell-based
[19] = target: T1, Bone morphogenetic protein 2 (Homo sapiens); experiment: Increase in BMP2-mediated osteoblastogenesis assessed as increase in Kv1.1 mRNA expression at 10 uM by RT-PCR analysis
[20] = target: T1, Bone morphogenetic protein 2 (Homo sapiens); experiment: Increase in human recombinant BMP2-mediated osteoblastogenesis assessed as increase in alkaline phosphatase mRNA expression in mouse C2C12 at 10 uM co-treated with BMP2 antagonist noggin on day 3 measured after 6 days by SYBR-based RT-PCR; format: functional

Measured: Activity

COC(=O)c1ccc(N)cc1
active: [2] | [3] Dose-dependent effect | [4] | [5] | [6] | [7]
inactive: [1]

CCCCOC(=O)c1ccc(N)cc1
inactive: [1]
active: [2] | [3] Dose-dependent effect | [4] | [5] | [6] | [7]

CCCCOC(=O)c1ccc(NC(C)=O)cc1
inactive: [8] | [1] | [14] | [18] | [20]
active: [9] | [10] | [2] | [3] Dose-dependent effect | [11] | [12] | [13] | [4] | [5] | [6] | [7] | [15] | [16] | [17] | [19]

CC(C)OC(=O)c1ccc(N)cc1
active: [2] | [3] Dose-dependent effect | [4] | [5] | [6] | [7]
inactive: [1]

— ChEMBL document CHEMBL1926531, “Butamben derivatives enhance BMP-2-stimulated commitment of C2C12 cells into osteoblasts with induction of voltage-gated potassium channel expression” (Bioorg Med Chem Lett, 2011)
